Results from US20080242688A1, “Method 741” (ASTRAZENECA AB, priority 2007, published 2008).
Where “and” joins values, the source holds several entries; their conditions need not be identical. Equal entries are not always repeated.

What was measured:
Single dose PK/TK, dog = assay type: in vivo; conditions: for AUC / Cmax / Tmax: dog, in vivo, po
Source text: (§1) This section provides a summary of the pharmacokinetic and metabolism properties of AZD0328 derived from in vivo studies. […] The derived PK/TK parameters from these studies are presented in Table 4 for single dose studies (DMR4, 0619LR, 20030191PCR, DMO16, DMB10, DMW12, 50190, 0190DD and 03.330/1), and are presented in Table 5 multiple dose PK/TK studies (DMR4, 0612AR, DMB15, 50190, 0190DD and 0295AD).

[1] = Single dose PK/TK, minipig; assay type: in vivo
Source text: as §1

rat brain α7 receptors = rat brain α7 receptors (Rattus norvegicus, UniProt Q05941); assay: BTX binding, rat hippocampal membranes
Method: AZD0328 is a reversible, high affinity ligand of human recombinant and rat brain α7 receptors. […]. Systemic administration of AZD0328 occupied rat brain α7 receptors and increased the number of α7 receptor binding sites. Very low doses of AZD0328 (0.00048-0.0016 mg/kg) improved spatial working memory performance in rhesus monkeys. The pharmacological profile of AZD0328 illustrates its potential utility to improve cognitive function by activating the α7 receptor.
. In Xenopus oocytes injected with human, recombinant α7 receptor mRNA, AZD0328 activates whole cell currents (Table 2). […] In acutely dissociated rat hippocampal interneurons, AZD0328 elicits rapidly activated, desensitizing whole-cell current (Table 1), consistent with the known properties of rat neuronal α7 receptors. […] AZD0328 modulates synaptic function, consistent with the well-known role of α7 receptors as heteroreceptor modulators of glutamatergic and GABAergic synaptic function.

guinea pigs = assay: Cardiac repolarisation in the anesthetised guinea pig; assay type: in vivo
Method: Effects of AZD0328 on ventricular repolarisation and intracardiac conduction were investigated in 6 anesthetised and ventilated guinea pigs (Table 3). For the electrophysiological characterisation, monophasic action potentia MAP duration at 90% repolarisation (MAPD90), ventricular conduction velocity (MAP rise time), and atrioventricular (AV) conduction time were recorded during cardiac pacing. AZD0328 had dose-dependent effects on the electrophysiological activities in the guinea pig heart. At the highest dose, resulting in a total plasma concentration of 8.5 μM, MAPD90 and AV conduction time were prolonged by 20% and 13%, respectively. It is concluded that AZD0328 delayed ventricular repolarisation in the anesthetised guinea pig by 10% at a total plasma concentration of 2.4 μM.

[2] = Respiratory effects, whole body plethysmography; assay type: in vivo; conditions: plasma; rat, oral; read-out: NOAEL on ventilatory function, total Cmax
Method: Effects of single oral doses of AZD0328 on mean, systolic and diastolic arterial blood pressures, heart rate, body temperature, locomotor activity and respiratory parameters were evaluated in rats by combining whole body plethysmography with telemetry (Table 3). […] The degree of hypertension, however, was similar at the 3 highest doses, which partly can be explained by the high individual variation in plasma exposure at each dose level. The effect on heart rate was, on the other hand, dose-related.
Effects of AZD0328 on respiratory function were evaluated in the combined cardiovascular/respiratory study in rats (Table 3). Respiratory rate, tidal volume, inspiratory and expiratory times, and peak inspiratory and expiratory flows were measured […].

[3] = both sexes, 1.08 mg/kg, dog 2F+2M, 0190DD, oral 1.08 mg/kg (5 μmol/kg) split in two 6 h apart, capsules, fasted
[4] = both sexes, 1.08 mg/kg, dog 2F+2M, 0190DD, oral 1.08 mg/kg (5 μmol/kg) split in two 6 h apart, capsules, fed
[5] = both sexes, 1.08 mg/kg, dog 2F+2M, 0190DD, oral 1.08 mg/kg (5 μmol/kg) split in two 6 h apart, solution, fasted
[6] = both sexes, Gottingen, in vivo, minipig 2M+2F, 50190, single oral 73.1 mg/kg (338 μmol/kg), capsules, fasted
[7] = both sexes, Gottingen, in vivo, minipig 2M+2F, 50190, single oral 563 mg/kg (2602 μmol/kg), capsules, fasted
[8] = male, Gottingen, in vivo, minipig 3M, DMW12, single oral 16.9 mg/kg (78.1 μmol/kg), solution, fed
[9] = highest dose, total plasma concentration 8.5 μM

rat brain α7 receptors, sequence (Q05941 23-502): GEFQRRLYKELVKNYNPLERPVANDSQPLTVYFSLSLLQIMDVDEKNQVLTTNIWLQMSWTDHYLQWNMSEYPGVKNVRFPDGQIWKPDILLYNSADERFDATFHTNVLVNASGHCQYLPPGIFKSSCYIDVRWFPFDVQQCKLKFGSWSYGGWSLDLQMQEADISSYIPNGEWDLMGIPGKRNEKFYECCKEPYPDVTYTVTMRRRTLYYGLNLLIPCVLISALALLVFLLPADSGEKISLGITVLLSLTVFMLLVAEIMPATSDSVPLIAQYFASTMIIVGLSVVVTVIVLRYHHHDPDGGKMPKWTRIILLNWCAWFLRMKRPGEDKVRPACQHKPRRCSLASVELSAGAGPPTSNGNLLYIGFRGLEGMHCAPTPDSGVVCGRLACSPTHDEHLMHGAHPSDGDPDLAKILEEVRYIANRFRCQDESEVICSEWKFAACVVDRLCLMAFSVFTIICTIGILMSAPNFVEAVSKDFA

## c1cnc2c(c1)C[C@@]1(CN3CCC1CC3)O2 [AZD0328, (R)-Spiro[1-azabicyclo[2.2.2]octane-3,2′(3′H)-furo[2,3-b]pyridine]]
Single dose PK/TK, dog; [3]
  AUC: 68.1 ng·h/mL and 0.315 µM·h
  Cmax: 19.2 ng/mL and 89 nM
  Tmax: 1 to 3 h
Single dose PK/TK, dog; [4]
  AUC: 177 ng·h/mL and 0.818 µM·h
  Cmax: 26.9 ng/mL and 124 nM
  Tmax: 0.5 to 6 h
Single dose PK/TK, dog; [5]
  AUC: 104 ng·h/mL and 0.483 µM·h
  Cmax: 33.1 ng/mL and 153 nM
  Tmax: 0.5 h
Single dose PK/TK, dog; dog 4M, 0279ZD, single oral 17.3 mg/kg (80 μmol/kg)
  F: 0.146 ± 0.043%
Single dose PK/TK, dog; dog 4M, 0279ZD, single oral 34.6 mg/kg (160 μmol/kg)
  F: 0.239 ± 0.099%
Single dose PK/TK, dog; male, 17.3 mg/kg, dog 4M, 0279ZD, single oral 17.3 mg/kg (80 μmol/kg)
  AUC: 2530 ng·h/mL and 11.7 µM·h
Single dose PK/TK, dog; male, 34.6 mg/kg, dog 4M, 0279ZD, single oral 34.6 mg/kg (160 μmol/kg)
  AUC: 8280 ng·h/mL and 38.3 µM·h
[1]; [6]
  AUC: 3140 ng·h/mL and 14.5 µM·h
  Cmax: 379 ng/mL and 1.75 µM
  Tmax: 2 to 6 h
[1]; [7]
  AUC: 18200 ng·h/mL and 84.2 µM·h
  Cmax: 1910 ng/mL and 8.84 µM
  Tmax: 12 h
[1]; male, Gottingen, in vivo, minipig 3M, DMW12, iv 8.5 mg/kg (39.3 μmol/kg)
  clearance: 35.5 mL/min/kg
[1]; male, Gottingen, in vivo, minipig 3M, DMW12, iv 8.5 mg/kg (39.3 μmol/kg), read-out: T½ (converted)
  half-life: 3.71 ± 1.72 h
[1]; male, Gottingen, in vivo, minipig 3M, DMW12, iv 8.5 mg/kg (39.3 μmol/kg), read-out: Vss
  Vd: 11.1 ± 4.2 L/kg
[1]; [8]
  AUC: 404 ng·h/mL and 1.87 µM·h
  Cmax: 81.3 ng/mL and 376 nM
  Tmax: 1 to 4 h
[1]; minipig 3M, DMW12, oral 16.9 mg/kg vs iv 8.5 mg/kg
  F: 5.19 ± 2.22%
Rat brain α7 receptors
  Ki: 4.7 nM
Guinea pigs; highest dose, iv cumulative bolus
  total plasma concentration: 8.5 µM
Guinea pigs; [9]
  prolongation of AV conduction time: 13%
  prolongation of MAPD90: 20%
Guinea pigs; in vivo
  NOAEL, guinea pig MAP assay: 1 µM
[2]
  Cmax: 31.2 µM
